Structures are written as SMILES. pIC50: −log10 of the molar value.

This passage reports IC50 results from US11999732B2, “P2X3 receptor antagonists” (RECORDATI INDUSTRIA CHIMICA E FARMACEUTICA SPA, priority 2018, dated 2024).

The target in the first assay is T1, human P2X3 receptor (Homo sapiens, UniProt P56373).
T1 construct: expressed in transfected cells; host or cells: CHO-K1
T1 sequence (P56373 1-397): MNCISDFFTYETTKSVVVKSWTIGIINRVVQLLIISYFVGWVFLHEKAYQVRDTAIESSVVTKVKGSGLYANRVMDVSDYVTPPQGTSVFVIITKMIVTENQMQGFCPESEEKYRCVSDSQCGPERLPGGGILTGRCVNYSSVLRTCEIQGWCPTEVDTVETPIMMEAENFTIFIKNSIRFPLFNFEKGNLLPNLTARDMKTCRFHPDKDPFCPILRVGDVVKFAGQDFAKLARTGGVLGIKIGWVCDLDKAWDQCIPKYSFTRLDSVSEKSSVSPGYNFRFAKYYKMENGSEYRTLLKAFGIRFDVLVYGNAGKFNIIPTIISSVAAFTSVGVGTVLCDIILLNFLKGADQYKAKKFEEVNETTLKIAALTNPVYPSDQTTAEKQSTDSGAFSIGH
Description: Calcium luminescence (photoprotein) assay in CHO-K1 cells co-expressing human P2X3 receptor, α,β-Met-ATP stimulation, FLEXSTATION readout. The class given is cell-based. To be noted: Table 6; human P2X3 receptor antagonist activity, CHO-K1 cells, α,β-Met-ATP; read-out: h-P2X3 IC50. As to the method:
The assay for the human purinergic P2X3 receptor has been adapted to the internal screening instrumentation using the FLEXSTATION as reader and a photoprotein as luminescent readout. The assay consists of CHO-K1 cells recombinantly co-expressing the human P2rx3 receptor and a Ca^2+ sensitive photoprotein. Cells are maintained in DMEM F-12 (1:1) mixture (LONZA cat. no BE04-687F/U1) supplemented with 9 mL of 100 mM Sodium Pyruvate (LONZA cat. no BE13-115E), 29 mL of 7.5% Sodium Bicarbonate (LONZA cat. no: BE17-613E), 5.5 mL of 1 M Hepes (LONZA cat. no BE17-737E), 5 mL of 100× Penicillin/Streptomycin (LONZA cat. no DE17-602E) and 50 mL of Fetal Bovine Serum (Sigma cat. no F7524), 1 mg/mL G418 (Sigma cat. no G8168) and 5 µg/ml puromycin (Sigma cat. no P9620). Standard propagation conditions consist of seeding in a P75 flask twice a week, recovering about 20×10^6 cells, corresponding to about 80% confluency. Cells were seeded into black-walled clear bottom 96 well plates at a density of 40000 cells/well in a Tyrode's buffer (Standard Tyrode's buffer: in house solution, 130 mM NaCl, 5 mM KCl, 2 mM CaCl2, 5 mM NaHCO3, 1 mM MgCl2, 20 mM HEPES, pH 7.4). After 24 h the culture medium was replaced with 200 μL/well of coelenterazine in Tyrode's buffer (Coelenterazine: from BIOSYNTH (cat. no C-7001). 10 mM stock solution was prepared in DMSO and glutathione and stored at −20° C.). The plates were incubated for 4 hours at 37° C., and injected with 10 μL/well of test compounds at 25× concentration in Tyrode's buffer. After 4 minutes a second injection of 50 μL/well of 5× α,β-Met-ATP in Tyrode's buffer (α,β-Met-ATP: from Tocris (cat. no 3209), was dissolved at 100 mM in water and stored in aliquots at −20° C.) was performed and the signal of the emitted luminescence was recorded by FLEXSTATION III (Molecular Devices).
The inhibition curves of the tested compounds at cloned P2X3 receptor were determined by nonlinear regression analysis using software Prism 4.0 (Graphpad, San Diego, Calif.). The IC50 values and pseudo-Hill slope coefficients were estimated by the program.
Consider `COc1cc(CN2C(=O)N3CCN=C3c3ncc(N4CCOCC4)cc32)cc(OC)c1` [Example 7, 6-(3,5-dimethoxybenzyl)-8-(morpholin-4-yl)-2,6-dihydroimidazo[1,2-c]pyrido[2,3-e]pyrimidin-5(3H)-one], for which the pIC50 was 5.78.
`O=C1N(Cc2ccc(Cl)cc2)c2cc(N3CCOCC3)cnc2C2=NCC(c3ccccc3)N12` (centres unmarked) [Example 45, 6-(4-chlorobenzyl)-8-(morpholin-4-y1)-3-phenyl-2,6-dihydroimidazo[1,2-c]pyrido[2,3-e]pyrimidin-5(3H)-one]: the pIC50 is 6.70.
Turning to `O=C(C1CN=C2c3ncc(N4CCOCC4)cc3N(Cc3ccc(Cl)cc3)C(=O)N21)N1CCOCC1` (centres unmarked) [Example 55, 6-(4-chlorobenzyl)-8-(morpholin-4-y1)-3-(morpholin-4-ylcarbonyl)-2,6-dihydroimidazo[1,2-c]pyrido[2,3-e]pyrimidin-5(3H)-one], the pIC50 was 5.61.
Take `COC1CCN(c2cnc3c(c2)N(Cc2ccc(Cl)cc2)C(=O)N2CC(C(C)C)N=C32)CC1` (centres unmarked) [Example 16, 6-(4-chlorobenzyl)-8-(4-methoxypiperidin-1-yl)-2-(propan-2-yl)-2,6-dihydroimidazo[1,2-c]pyrido[2,3-e]pyrimidin-5(3H)-one]: the pIC50 was 5.65.
On the same count and under the same terms, with `COc1cc(CN2C(=O)N3CC(C(C)C)N=C3c3ncc(NC4CCOCC4)cc32)cc(OC)c1` (centres unmarked) [Example 49, 6-(3,5-dimethoxybenzyl)-2-(propan-2-yl)-8-(tetrahydro-2H-pyran-4-ylamino)-2,6-dihydroimidazo[1,2-c]pyrido[2,3-e]pyrimidin-5(3H)-one] the figure was 6.06; with `O=C1N2CC(C3CC3)N=C2c2ncc(N3CCOCC3)cc2N1Cc1ccc(Cl)cc1` (centres unmarked) [Example 10, 6-(4-chlorobenzyl)-2-cyclopropyl-8-(morpholin-4-yl)-2,6-dihydroimidazo[1,2-c]pyrido[2,3-e]pyrimidin-5(3H)-one], 6.62.
For `O=C1N(Cc2ccc(Cl)cc2)c2cc(N3CCOCC3)cnc2C2=NCC3(CCOCC3)N12` [Example 41, 6-(4-chlorobenzyl)-8-(morpholin-4-yl)-2,2′,3′,5′,6,6′-hexahydro-5h-spiro[imidazo[1,2-c]pyrido[2,3-e]pyrimidine-3,4′-pyran]-5-one], the pIC50 was 5.48.
`COCC1CN(c2cnc3c(c2)N(Cc2ccc(Cl)cc2)C(=O)N2CC(C(C)C)N=C32)C1` (centres unmarked) [Example 17, 6-(4-chlorobenzyl)-8-[3-(methoxymethyl)azetidin-1-yl]-2-(propan-2-y1)-2,6-dihydroimidazo[1,2-c]pyrido[2,3-e]pyrimidin-5(3H)-one]: the pIC50 was 6.16.
Regarding `COCCC1CN2C(=O)N(Cc3ccc(OC)cc3)c3cc(N4CCOCC4)cnc3C2=N1` (centres unmarked) [Example 65, 6-(4-methoxybenzyl)-2-(2-methoxyethyl)-8-(morpholin-4-yl)-2,6-dihydroimidazo[1,2-c]pyrido[2,3-e]pyrimidin-5(3H)-one], the pIC50 was 5.75.
For `COc1cc(CN2C(=O)N3CC(C4CCCCC4)N=C3c3ncc(N4CCOCC4)cc32)cc(OC)c1` (centres unmarked) [Example 43, 2-cyclohexyl-6-(3,5-dimethoxybenzyl)-8-(morpholin-4-yl)-2,6-dihydroimidazo[1,2-c]pyrido[2,3-e]pyrimidin-5(3H)-one], the pIC50 is 6.95.
For `CC(C)CC1CN2C(=O)N(Cc3ccc(Cl)cc3)c3cc(N4CCOCC4)cnc3C2=N1` (centres unmarked) [Example 30, 6-(4-chlorobenzyl)-2-(2-methylpropyl)-8-(morpholin-4-y1)-2,6-dihydroimidazo[1,2-c]pyrido[2,3-e]pyrimidin-5(3H)-one], the pIC50 is 6.46.

Still in this assay, the particulars now being: Table 7; human P2X3 receptor antagonist activity, CHO-K1 cells, α,β-Met-ATP; read-out: h-P2X3 IC50.
For `COc1ccc(Cn2c(=O)n3c(C)c(C(C)C)nc3c3ncc(N4CC5(COC5)C4)cc32)cc1` [Example 93, 6-(4-methoxybenzyl)-3-methyl-8-(2-oxa-6-azaspiro[3.3]heptan-6-yl)-2-(propan-2-yl)imidazo[1,2-c]pyrido[2,3-e]pyrimidin-5(6H)-one], the pIC50 is 6.00.
For `Cc1c(C(C)C)nc2c3ncc(C(=O)N4CCC(O)CC4)cc3n(Cc3ccc(Cl)cc3)c(=O)n12` [Example 94, 6-(4-chlorobenzyl)-8-[(4-hydroxypiperidin-1-yl)carbonyl]-3-methyl-2-(propan-2-yl)imidazo[1,2-c]pyrido[2,3-e]pyrimidin-5(6H)-one], the pIC50 was 5.08.
Regarding `CC(C)Cc1cn2c(=O)n(Cc3ccc(Cl)cc3)c3cc(N4CC5(COC5)C4)cnc3c2n1` [Example 73, 6-(4-chlorobenzyl)-2-(2-methylpropyl)-8-(2-oxa-6-azaspiro[3.3]heptan-6-yl)imidazo[1,2-c]pyrido[2,3-e]pyrimidin-5(6H)-one], the negative-log IC50 (pIC50) was 6.04.
Consider `Cc1c(C(C)C)nc2c3ncc(C(=O)NCCO)cc3n(Cc3ccc(Cl)cc3)c(=O)n12` [Example 95, 6-(4-chlorobenzyl)-n-(2-hydroxyethyl)-3-methyl-5-oxo-2-(propan-2-y1)-5,6-dihydroimidazo[1,2-c]pyrido[2,3-e]pyrimidine-8-carboxamide], for which the pIC50 was 5.53.
The same measure, in the same setting: the same measure for `Cc1noc(C)c1-c1nnc2c3ncc(N4CCOCC4)cc3n(Cc3ccc(Cl)cc3)c(=O)n12` [Example 110, 6-(4-chlorobenzyl)-3-(3,5-dimethyl-1,2-oxazol-4-yl)-8-(morpholin-4-yl)pyrido[2,3-e][1,2,4]triazolo[4,3-c]pyrimidin-5(6H)-one]: 6.59.

The same assay, now with this note: Table 8; human P2X3 receptor antagonist activity, CHO-K1 cells, α,β-Met-ATP; read-out: h-P2X3 IC50.
In the case of `COc1ccc(Cc2nn3c(CC4CCOCC4)nnc3c3ncc(N4CCOCC4)cc23)cc1` [Example 125, 6-(4-methoxybenzyl)-8-(morpholin-4-yl)-3-(tetrahydro-2H-pyran-4-ylmethyl)pyrido[2,3-d][1,2,4]triazolo[4,3-b]pyridazine], the pIC50 is 6.27.
For `Cc1ccc(Cc2nn3c(CC4CCCCC4)nnc3c3ncc(N4CCOCC4)cc23)cc1` [Example 137, 3-(cyclohexylmethyl)-6-(4-methylbenzyl)-8-(morpholin-4-yl)pyrido[2,3-d][1,2,4]triazolo[4,3-b]pyridazine], the negative-log IC50 (pIC50) was 6.63.
For the compound `COCC1CN(c2cnc3c(c2)c(Cc2cc(OC)cc(OC)c2)nn2c(CC(C)C)nnc32)C1` [Example 121, 6-(3,5-dimethoxybenzyl)-8-[3-(methoxymethyl)azetidin-1-yl]-3-(2-methylpropyl)pyrido[2,3-d][1,2,4]triazolo[4,3-b]pyridazine], the pIC50 was 5.94.
For the compound `Cc1ccc(Cc2nn3c(CC4CCCCC4)nnc3c3ncccc23)cc1` [Example 136, 3-(cyclohexylmethyl)-6-(4-methylbenzyl)pyrido[2,3-d][1,2,4]triazolo[4,3-b]pyridazine], the pIC50 was 5.75.

Staying with this assay, now noted: Table 9; human P2X3 receptor antagonist activity, CHO-K1 cells, α,β-Met-ATP; read-out: h-P2X3 IC50.
In the case of `COc1ccc(CN2C(=O)N3C(=NC(=O)C3C(C)C)c3ncc(N4CCOCC4)cc32)cc1` (centres unmarked) [Example 164, 6-(4-methoxybenzyl)-8-(morpholin-4-yl)-3-(propan-2-yl)imidazo[1,2-c]pyrido[2,3-e]pyrimidine-2,5(3H,6H)-dione], the negative logarithm of the IC50 (pIC50) is 6.73.
Consider `COc1cc(CN2C(=O)N3CC(C)(C)CN=C3c3ncc(NCCO)cc32)cc(OC)c1` [Example 144, 5-(3,5-dimethoxybenzyl)-3-[(2-hydroxyethyl)amino]-9,9-dimethyl-5,8,9,10-tetrahydro-6H-pyrido[2,3-e]pyrimido[1,2-c]pyrimidin-6-one], for which the pIC50 was 5.61.
As to `COc1ncc2c(n1)c1nnc(C(C)(C)C)n1c(=O)n2Cc1ccc(Cl)cc1` [Example 168, 3-tert-butyl-6-(4-chlorobenzyl)-9-methoxypyrimido[4,5-e][1,2,4]triazolo[4,3-c]pyrimidin-5(6H)-one], the pIC50 was 5.86.

By pIC50 is commonly meant −log10 of the IC50, conventionally taken in molar units.
